The values below are quoted from earlier work in patent US20120082623A1, “SHH Regulation and Methods Thereof” (priority 2009, published 2012).

The target in data set [1] is T1, GDNF family receptor (GFR)α1 (Mus musculus, UniProt P97785).
T1 construct: host or cells: Neuro-2A cells
T1 sequence (P97785 25-430): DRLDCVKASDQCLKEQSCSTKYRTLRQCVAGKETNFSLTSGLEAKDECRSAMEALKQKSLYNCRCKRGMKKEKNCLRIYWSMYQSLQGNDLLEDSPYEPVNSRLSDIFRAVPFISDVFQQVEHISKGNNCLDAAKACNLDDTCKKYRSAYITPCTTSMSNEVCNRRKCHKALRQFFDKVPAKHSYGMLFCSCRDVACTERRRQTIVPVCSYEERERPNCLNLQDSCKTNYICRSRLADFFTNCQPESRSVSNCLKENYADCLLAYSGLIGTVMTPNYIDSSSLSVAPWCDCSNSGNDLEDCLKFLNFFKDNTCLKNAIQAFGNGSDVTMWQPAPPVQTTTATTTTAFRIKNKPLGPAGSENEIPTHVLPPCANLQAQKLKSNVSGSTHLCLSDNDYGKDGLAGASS
Conditions: Neuro-2A cells; cited from earlier work.

For the next data set, the system named is ALS patients. To be noted: cited from earlier work.
The test system of the next data set is SVZ derived EGFR+ cells. Conditions: neurospheres, dose dependent manner; cited from earlier work.

For the compound `CCN(CC)CCCC(C)Nc1cc(/C=C/c2ccccc2Cl)nc2cc(Cl)ccc12` (stereo not drawn) [XIB4035], the neurotrophic effects result in data set [1] is on record as “mimics the neurotrophic effects of GDNF”.

In the case of `Nc1nc2ccc(OC(F)(F)F)cc2s1` [Riluzole], the measures of function result in the data set with ALS patients is “has not been shown to have significant effect on measures of function”.

For the compound `NCCc1ccc(O)c(O)c1` [dopamine], the “proliferation of SVZ derived EGFR+ cells” value in the data set on SVZ derived EGFR+ cells is “increased the proliferation of SVZ derived EGFR+ cells”.
